Test results reported in ChEMBL document CHEMBL4507257, “Data for DCP probe ABT-100” (2021).
Calls of active or inactive are those of the source. The rule behind the calls is not given here.

Assays:
[1] = target: T1, 5-hydroxytryptamine receptor 2C (Homo sapiens) (UniProt P28335); assay: 5-HT2C (h) Ligand binding assay; conditions: Compound concentration 10.0 uM
T1 sequence (whole entry): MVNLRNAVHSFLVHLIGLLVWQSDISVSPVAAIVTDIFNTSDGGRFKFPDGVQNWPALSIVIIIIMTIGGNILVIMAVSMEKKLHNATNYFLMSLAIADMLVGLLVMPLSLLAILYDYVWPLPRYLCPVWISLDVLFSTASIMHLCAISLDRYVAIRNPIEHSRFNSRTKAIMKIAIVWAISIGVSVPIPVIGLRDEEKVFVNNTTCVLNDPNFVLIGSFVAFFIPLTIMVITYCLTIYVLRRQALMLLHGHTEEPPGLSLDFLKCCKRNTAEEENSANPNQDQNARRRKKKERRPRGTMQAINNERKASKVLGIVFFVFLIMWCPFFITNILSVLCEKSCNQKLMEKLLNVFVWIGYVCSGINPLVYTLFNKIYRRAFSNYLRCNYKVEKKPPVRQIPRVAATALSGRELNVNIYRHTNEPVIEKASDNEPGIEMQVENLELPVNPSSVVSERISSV

[2] = target: Calcium/calmodulin-dependent protein kinase type 1B (Homo sapiens, UniProt Q6P2M8); assay: Inhibition of PNCK at compound concentration of 10.0 uM using the ScanMax (DiscoverX)
Chain of Calcium/calmodulin-dependent protein kinase type 1B (Q6P2M8 whole entry): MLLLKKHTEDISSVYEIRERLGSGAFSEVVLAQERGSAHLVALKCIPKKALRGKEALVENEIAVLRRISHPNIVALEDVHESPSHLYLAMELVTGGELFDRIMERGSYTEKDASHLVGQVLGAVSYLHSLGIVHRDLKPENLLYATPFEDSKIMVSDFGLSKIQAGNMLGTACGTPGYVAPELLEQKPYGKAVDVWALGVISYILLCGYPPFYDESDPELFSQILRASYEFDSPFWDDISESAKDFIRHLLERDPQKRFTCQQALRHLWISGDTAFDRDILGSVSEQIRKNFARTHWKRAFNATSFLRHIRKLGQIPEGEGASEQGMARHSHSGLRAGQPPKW

[3] = target: Translocator protein (Rattus norvegicus) (UniProt P16257); assay: BZD (peripheral) Ligand binding assay; conditions: Compound concentration 10.0 uM
Chain of Translocator protein (Rattus norvegicus) (P16257 whole entry, looked up): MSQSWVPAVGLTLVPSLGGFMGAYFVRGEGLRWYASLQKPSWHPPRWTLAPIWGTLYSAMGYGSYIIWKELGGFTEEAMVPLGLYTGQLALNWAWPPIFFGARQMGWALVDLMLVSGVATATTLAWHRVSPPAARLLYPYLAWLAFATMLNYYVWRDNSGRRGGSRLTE

[4] = target: Vasopressin V1a receptor (Homo sapiens) (UniProt P37288); assay: V1a (h) Ligand binding assay; conditions: Compound concentration 10.0 uM
Chain of Vasopressin V1a receptor (Homo sapiens) (P37288 whole entry, looked up): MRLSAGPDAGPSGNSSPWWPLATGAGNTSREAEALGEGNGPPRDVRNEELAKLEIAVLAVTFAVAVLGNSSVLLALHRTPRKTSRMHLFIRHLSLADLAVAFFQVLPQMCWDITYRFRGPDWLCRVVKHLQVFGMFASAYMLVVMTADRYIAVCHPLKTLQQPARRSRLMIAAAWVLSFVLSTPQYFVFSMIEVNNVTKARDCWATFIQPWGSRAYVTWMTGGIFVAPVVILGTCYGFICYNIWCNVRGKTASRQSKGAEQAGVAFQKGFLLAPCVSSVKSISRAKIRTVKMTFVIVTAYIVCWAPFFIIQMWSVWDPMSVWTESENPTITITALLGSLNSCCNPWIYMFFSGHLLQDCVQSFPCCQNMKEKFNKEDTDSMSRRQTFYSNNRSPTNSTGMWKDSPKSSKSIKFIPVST

Histamine H1 receptor [5] = target: T2, Histamine H1 receptor (Homo sapiens, UniProt P35367); assay: H1 (central) Ligand binding assay; conditions: Compound concentration 10.0 uM
T2 sequence (P35367 whole entry): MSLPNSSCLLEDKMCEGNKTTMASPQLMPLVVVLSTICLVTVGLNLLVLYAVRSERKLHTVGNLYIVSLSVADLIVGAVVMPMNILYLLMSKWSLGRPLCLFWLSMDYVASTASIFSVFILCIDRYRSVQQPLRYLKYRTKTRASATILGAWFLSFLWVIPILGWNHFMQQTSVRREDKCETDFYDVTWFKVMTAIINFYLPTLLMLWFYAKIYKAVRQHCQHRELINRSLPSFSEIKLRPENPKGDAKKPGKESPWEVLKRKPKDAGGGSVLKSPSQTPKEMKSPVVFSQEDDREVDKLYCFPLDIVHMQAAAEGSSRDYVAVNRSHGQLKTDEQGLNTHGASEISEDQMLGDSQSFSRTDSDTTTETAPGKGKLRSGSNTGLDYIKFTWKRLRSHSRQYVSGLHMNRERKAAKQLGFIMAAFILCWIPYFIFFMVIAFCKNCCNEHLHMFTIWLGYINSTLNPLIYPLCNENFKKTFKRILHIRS

Histamine H1 receptor [6] = target: T2, Histamine H1 receptor; assay: GPCRScan assay: inhibition of H1; set-up: radioligand conc. used [nm] 0.6 – 2.0, parental cells stable HEK
[7] = target: GABA-A receptor; anion channel (Homo sapiens) (UniProt P14867+P47870+P18507+P28472+P48169+Q99928+Q9UN88+P34903+O00591+O14764+Q8N1C3+P18505+P78334+P47869+P31644+Q16445); assay: BZD (central) Ligand binding assay; type: protein-complex assay; conditions: Compound concentration 10.0 uM
[8] = target: Beta-1 adrenergic receptor (Homo sapiens) (UniProt P08588); assay: beta1 (h) Ligand binding assay; conditions: Compound concentration 10.0 uM
Chain of Beta-1 adrenergic receptor (Homo sapiens) (P08588 whole entry, looked up): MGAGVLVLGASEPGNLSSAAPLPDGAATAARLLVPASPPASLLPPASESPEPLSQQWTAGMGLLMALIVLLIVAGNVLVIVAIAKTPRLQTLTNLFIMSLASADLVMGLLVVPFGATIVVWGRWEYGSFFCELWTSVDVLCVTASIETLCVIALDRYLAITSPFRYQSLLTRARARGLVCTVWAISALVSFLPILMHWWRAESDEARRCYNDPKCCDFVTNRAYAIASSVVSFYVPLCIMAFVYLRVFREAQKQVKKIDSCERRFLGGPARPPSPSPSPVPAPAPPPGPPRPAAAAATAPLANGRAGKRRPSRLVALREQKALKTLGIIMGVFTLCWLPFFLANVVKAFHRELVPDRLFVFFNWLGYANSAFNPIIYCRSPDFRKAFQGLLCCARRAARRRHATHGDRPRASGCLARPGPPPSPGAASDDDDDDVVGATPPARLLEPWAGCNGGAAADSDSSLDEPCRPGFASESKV

[9] = Immunoblot method to monitor prenylation inhibition of Ras; set-up: species or system Homo sapiens
[10] = target: Homeodomain-interacting protein kinase 2 (Homo sapiens, UniProt Q9H2X6); assay: Inhibition of HIPK2 at compound concentration of 10.0 uM using the ScanMax (DiscoverX)
Chain of Homeodomain-interacting protein kinase 2 (Q9H2X6 whole entry): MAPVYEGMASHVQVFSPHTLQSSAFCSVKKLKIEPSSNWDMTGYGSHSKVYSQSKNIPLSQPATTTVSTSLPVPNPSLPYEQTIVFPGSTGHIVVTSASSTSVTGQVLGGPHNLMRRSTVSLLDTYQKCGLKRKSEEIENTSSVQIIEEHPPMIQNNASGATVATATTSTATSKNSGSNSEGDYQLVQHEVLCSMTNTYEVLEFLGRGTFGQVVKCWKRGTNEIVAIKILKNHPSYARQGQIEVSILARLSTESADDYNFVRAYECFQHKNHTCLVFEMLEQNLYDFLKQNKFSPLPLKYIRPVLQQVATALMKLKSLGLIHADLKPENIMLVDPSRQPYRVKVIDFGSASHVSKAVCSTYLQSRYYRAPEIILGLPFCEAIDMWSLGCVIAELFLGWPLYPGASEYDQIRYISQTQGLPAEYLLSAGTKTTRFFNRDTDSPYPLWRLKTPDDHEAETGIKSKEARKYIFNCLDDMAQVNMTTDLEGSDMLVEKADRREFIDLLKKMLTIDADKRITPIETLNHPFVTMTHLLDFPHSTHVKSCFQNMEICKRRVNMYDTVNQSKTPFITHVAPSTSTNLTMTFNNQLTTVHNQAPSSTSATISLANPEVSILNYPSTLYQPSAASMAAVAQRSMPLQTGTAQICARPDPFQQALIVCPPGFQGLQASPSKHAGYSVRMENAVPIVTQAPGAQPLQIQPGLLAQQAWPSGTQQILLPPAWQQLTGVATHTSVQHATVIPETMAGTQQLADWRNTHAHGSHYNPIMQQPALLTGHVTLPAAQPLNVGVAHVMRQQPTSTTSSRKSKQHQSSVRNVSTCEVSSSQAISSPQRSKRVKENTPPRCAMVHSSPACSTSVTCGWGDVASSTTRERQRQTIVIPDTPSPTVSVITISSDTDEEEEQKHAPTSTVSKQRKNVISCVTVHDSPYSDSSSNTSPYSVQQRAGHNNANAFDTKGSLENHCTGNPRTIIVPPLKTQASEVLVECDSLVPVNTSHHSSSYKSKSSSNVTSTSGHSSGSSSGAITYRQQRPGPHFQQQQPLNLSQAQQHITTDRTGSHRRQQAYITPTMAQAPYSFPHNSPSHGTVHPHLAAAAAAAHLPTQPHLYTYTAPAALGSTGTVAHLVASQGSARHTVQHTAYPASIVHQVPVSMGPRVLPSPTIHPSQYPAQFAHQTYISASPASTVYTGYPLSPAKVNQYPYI

[11] = target: Thromboxane A2 receptor (Homo sapiens) (UniProt P21731); assay: TXA2/PGH2 (h) Ligand binding assay; conditions: Compound concentration 10.0 uM
Chain of Thromboxane A2 receptor (Homo sapiens) (P21731 whole entry): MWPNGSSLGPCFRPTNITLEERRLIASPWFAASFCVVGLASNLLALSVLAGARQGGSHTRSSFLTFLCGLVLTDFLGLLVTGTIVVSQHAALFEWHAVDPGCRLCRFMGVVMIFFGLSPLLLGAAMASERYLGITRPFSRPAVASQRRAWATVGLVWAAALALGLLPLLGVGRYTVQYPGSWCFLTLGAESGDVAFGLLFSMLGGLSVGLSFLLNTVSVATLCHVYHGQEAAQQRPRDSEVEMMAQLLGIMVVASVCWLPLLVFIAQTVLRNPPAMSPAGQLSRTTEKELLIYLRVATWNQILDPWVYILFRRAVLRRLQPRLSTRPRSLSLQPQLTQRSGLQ

[12] = target: D(3) dopamine receptor (Homo sapiens) (UniProt P35462); assay: D3 (h) Ligand binding assay; conditions: Compound concentration 10.0 uM
Chain of D(3) dopamine receptor (Homo sapiens) (P35462 whole entry): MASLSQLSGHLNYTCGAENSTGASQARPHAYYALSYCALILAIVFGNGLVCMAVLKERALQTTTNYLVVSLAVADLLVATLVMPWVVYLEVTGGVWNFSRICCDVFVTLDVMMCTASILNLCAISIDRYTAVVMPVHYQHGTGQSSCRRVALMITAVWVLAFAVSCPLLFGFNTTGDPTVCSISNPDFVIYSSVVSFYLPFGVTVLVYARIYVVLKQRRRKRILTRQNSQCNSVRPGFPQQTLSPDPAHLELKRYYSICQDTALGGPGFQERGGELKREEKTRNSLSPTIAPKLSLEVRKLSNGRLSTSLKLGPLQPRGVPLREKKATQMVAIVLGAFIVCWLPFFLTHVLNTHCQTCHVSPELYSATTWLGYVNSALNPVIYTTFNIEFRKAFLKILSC

[13] = target: Neuropeptide Y receptor type 1 (Homo sapiens) (UniProt P25929); assay: Y1 (h) Ligand binding assay; conditions: Compound concentration 10.0 uM
Chain of Neuropeptide Y receptor type 1 (Homo sapiens) (P25929 whole entry): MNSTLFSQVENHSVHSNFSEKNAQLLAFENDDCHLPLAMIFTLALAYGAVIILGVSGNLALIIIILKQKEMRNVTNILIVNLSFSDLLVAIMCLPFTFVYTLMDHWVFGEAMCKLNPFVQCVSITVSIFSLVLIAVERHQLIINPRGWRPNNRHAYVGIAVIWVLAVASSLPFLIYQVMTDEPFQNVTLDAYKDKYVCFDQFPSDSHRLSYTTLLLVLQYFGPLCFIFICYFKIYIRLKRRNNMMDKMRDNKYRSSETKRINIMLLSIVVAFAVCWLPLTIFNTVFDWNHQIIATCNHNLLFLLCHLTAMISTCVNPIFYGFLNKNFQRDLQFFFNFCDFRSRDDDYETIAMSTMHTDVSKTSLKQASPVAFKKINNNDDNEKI

In the case of `Cn1cncc1[C@](O)(COc1ccc(C#N)cc1-c1ccc(OC(F)(F)F)cc1)c1ccc(C#N)cc1` [ABT-100], the inhibition [1] is reported as under 10%, the Kd [2] is reported as > 10 µM (not active) and the inhibition [3] is reported as 36%. It also gave an inhibition [4] of under 10%, an inhibition (Histamine H1 receptor [5]) of under 10% and a Ki (Histamine H1 receptor [6]) of 10 µM. For the same compound, the inhibition [7] was under 10%, the inhibition [8] was 22% and the EC50 [9] was 0.73 nM (active). The Kd [10] was > 10 µM (not active), the inhibition [11] was 24% and the inhibition [12] was 36%. It also gave an inhibition [13] of under 10%.
